Measurements taken from publication PMC7993378, “Inhibition of bacterial and human zinc-metalloproteases by bisphosphonate- and catechol-containing compounds” (Journal of Enzyme Inhibition and Medicinal Chemistry, 2021).
Read-outs that look alike come from different tables or passages of the source.

How the values were obtained:
[1] = biological target: APMA-activated recombinant MMP-9 (rMMP-9(A)) (Homo sapiens, UniProt P14780); test: rMMP-9(A) inhibition in Tris-HCl buffer with varied preincubation time, followed continuously for 3 h; type: biochemical; details: 100 µM, 0.1 M Tris-HCl pH 7.5, N = 4
Chain of APMA-activated recombinant MMP-9 (rMMP-9(A)) (P14780 107-444 limits assumed): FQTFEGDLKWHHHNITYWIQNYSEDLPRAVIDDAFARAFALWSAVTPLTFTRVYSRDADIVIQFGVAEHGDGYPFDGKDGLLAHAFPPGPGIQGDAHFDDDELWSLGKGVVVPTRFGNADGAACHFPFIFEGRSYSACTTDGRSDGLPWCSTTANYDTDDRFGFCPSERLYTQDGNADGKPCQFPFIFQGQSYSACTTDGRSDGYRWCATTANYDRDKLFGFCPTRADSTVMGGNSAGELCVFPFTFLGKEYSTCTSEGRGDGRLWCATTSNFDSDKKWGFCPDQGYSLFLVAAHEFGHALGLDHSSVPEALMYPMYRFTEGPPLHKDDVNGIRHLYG
Excerpt: Except for ML33, all catechol derivatives have previously been tested for binding to MMP-2, MMP-8 and MMP-9[60]. […] The Ki values for MMP-9 in the present study were higher than the IC50 values in the previous study, the exception was MT336 for which we obtained a lower value. It is not easy to point out a single factor in the experiments contributing to deviations between the studies. Both studies used a pH of 7.5 but the buffer compositions were slightly different. […] Tauro et al.[60] used a commercial active MMP-9 produced in E-coli that only contained the catalytic domain and the fibronectin-like (FnII) module. […] A factor that may contribute to differences is that after preincubation of MMP-9 with catechol derivatives and adding of the substrate for starting the reaction, we followed the reaction continuously for 30 min, while Tauro et al.[60] used an endpoint assay allowing the reaction to proceed for 2 to 4 h before the fluorescence was measured. We did some tests to determine if some of these differences could affect the binding results. In the test experiments, we used rMMP-9(A) which differs from the MMP-9(T) by a slightly different N-terminal and a largely truncated C-terminal HPX domain[57]. One hundred µM of BF466 was tested where the 0.1 M Hepes buffer pH 7.5 was exchanged to a 0.1 M Tris-HCl buffer pH 7.5. The rMMP-9(A) was preincubated with BF466 for 0, 15 and 30 min at 37 °C and the reaction was started by the addition of the substrate McaPLGL(Dpa)AR-NH2 (4 µM in the assay) following the reaction continuously for 3 h. The controls without BF466 were treated identically. […] The reaction was allowed to proceed for 4 h, and the reaction was stopped by addition of EDTA (end concentration 10 mM) and the relative fluorescence intensity determined.
The expression and purification of recombinant human full-length proMMP-9 (rpMMP-9) from Sf9 insect cells were performed as described previously. […] The amount of active MMP-9 was determined by active site titration using galardin also described previously.

pseudolysin (PLN) = biological target: T1, pseudolysin (PLN) (Pseudomonas aeruginosa, UniProt P14756); test: PLN inhibition, continuous initial rate assay with McaRPPGFSAFK(Dnp)-OH after 15 min preincubation; type: biochemical; details: for inhibition at 100 µM: read-out: inhibition (reduction of activity) of PLN
T1 construct: purchased Calbiochem (San Diego, CA, USA)
T1 sequence (P14756 198-498): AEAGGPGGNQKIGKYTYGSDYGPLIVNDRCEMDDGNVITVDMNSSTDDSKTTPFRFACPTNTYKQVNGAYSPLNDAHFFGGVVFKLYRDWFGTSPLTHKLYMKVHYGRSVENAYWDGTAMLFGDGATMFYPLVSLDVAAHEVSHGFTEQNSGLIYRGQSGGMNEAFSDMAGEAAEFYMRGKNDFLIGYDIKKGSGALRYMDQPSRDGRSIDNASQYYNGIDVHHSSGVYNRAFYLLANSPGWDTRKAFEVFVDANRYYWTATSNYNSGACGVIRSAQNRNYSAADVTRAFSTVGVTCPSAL
Method: (§1) The inhibitorial power of 100 μM of the eight catechol containing compounds was tested against the two human metalloproteases MMP-9(T) and MMP-14 and the three bacterial metalloproteases ALN, PLN and TLN (Figure 1). In order to detect putative slow and slow-tight binding, the catechol derivatives were first incubated along with the enzyme for 15 min at 37 °C. In controls without inhibitor present, enzymes and buffer were preincubated under identical conditions. Thereafter, the enzyme reaction was started by adding the relevant […] substrate and the rate was followed continuously for 30 min. […] The activity was reduced with more than 50%, by MT336 for the two MMPs, by BF482 for MMP-9(T) and by ML33 for ALN (Figure 1). In all other inhibitory studies with catechol containing compounds, the activity was reduced between 0 and 45%.
(§2) To assure that this is correct, the inhibitors BF471 and BF489 were tested against varying McaRPPGFSAFK(Dnp)-OH using TLN as described in the Experimental section. […] It should be noted that the reaction was started by adding the enzyme to the substrate-inhibitor mixtures. In the case of slow binding, the full potential of these inhibitors would not be realised by this inhibitory assay. When the activity was reduced by more than […], experiments were performed with varying concentrations of the catechol derivatives. IC50 values were obtained from dose response plots, and Ki values were determined from the IC50 values based on substrate competitive inhibition. By the use of Ki values, we can compare the binding strength of the compounds for the different enzymes and not only comparing the compounds ability to bind one enzyme. There are several possible explanations for the deviation in determined Ki value of BF471 and BF489 for TLN from the dose response plots and the double inverse plots.
(§3) The various inhibitors were dissolved in 100% DMSO giving an inhibitor concentration of 10 mM. All the inhibitory and control experiments contained a total and fixed concentration of 1.0% DMSO. […] The fixed enzyme concentration were as follows; 0.28 nM MMP-9(T), 0.05 nM MMP-9(A), 1.0 nM MMP-14, 1.4 nM ALN, 0.5 nM PLN and 0.21 nM TLN. Enzymes with and without inhibitors were pre-incubated for 15 min at 37 °C, the initial rate assays were started by adding the substrate and the reaction was followed for 30 min. Assays were performed using a Spectra Max Gemini EM micro-plate reader (Molecular Devices) or a Clario Star micro plate reader (CLARIOstar® BMG LABTECH). Assays were performed at 37 °C, using an excitation wavelength of 320 nm and an emission wavelength of 405 nm with a slit width of 10 nm. The IC50 values were calculated either in Sigma Plot (Enzyme kinetics 1.3 module) or in Graph Pad Prism 5 using Equations (1) or (2) depending on the concentration span of the used inhibitor: (1) vi/v0= 1/(1+ 10^(pIC50−pI)) (2) vi/v0= 1/(1+ [I]/IC50) where vi is the enzyme activity in the presence of inhibitor, v0 the activity in the absence of inhibitor, pI=−log [Inhibitor] in M and pIC50 = −log IC50 in M. All experiments were performed in at least triplicate.

TLN = biological target: T2, TLN (Bacillus thermoproteolyticus, UniProt P00800); test: TLN inhibition against varying McaRPPGFSAFK(Dnp)-OH, reaction started by adding enzyme (double inverse plots); type: biochemical; details: no preincubation, read-out: Ki TLN from varying substrate
T2 construct: purchased Calbiochem (San Diego, CA, USA)
T2 sequence (P00800 233-548): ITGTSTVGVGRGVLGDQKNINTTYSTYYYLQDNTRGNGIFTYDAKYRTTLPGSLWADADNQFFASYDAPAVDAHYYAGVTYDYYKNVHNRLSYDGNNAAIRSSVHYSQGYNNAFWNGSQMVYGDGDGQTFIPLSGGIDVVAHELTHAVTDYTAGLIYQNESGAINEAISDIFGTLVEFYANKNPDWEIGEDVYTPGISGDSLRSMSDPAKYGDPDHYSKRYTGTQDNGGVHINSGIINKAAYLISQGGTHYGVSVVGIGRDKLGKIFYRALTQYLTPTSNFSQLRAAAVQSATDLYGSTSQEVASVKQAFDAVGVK
Method: as §2

[2] = biological target: T3, Human MT1-MMP/MMP-14 (catalytic domain) (Homo sapiens, UniProt P50281); test: MMP-14 inhibition, continuous initial rate assay with McaPLGL(Dpa)AR-NH2 after 15 min preincubation; type: biochemical; details: for inhibition at 100 µM: 100 μM compound, 15 min preincubation at 37 °C, 4 μM substrate, read-out: inhibition (reduction of activity) of MMP-14; for Ki: substrate McaPLGL(Dpa)AR-NH2 4 µM, 4–6 experiments, read-out: Ki ± sd MMP-14
T3 construct: Human MT1-MMP/MMP-14 (catalytic domain); purchased Calbiochem (San Diego, CA, USA)
Method: as §1, §2, §3

[3] = biological target: T4, trypsin-activated MMP-9 from THP-1 cells (MMP-9(T)) (Homo sapiens, UniProt P14780); test: MMP-9(T) inhibition, continuous initial rate assay with McaPLGL(Dpa)AR-NH2 after 15 min preincubation; type: biochemical; details: for inhibition at 100 µM: read-out: inhibition (reduction of activity) of MMP-9(T); for Ki: substrate McaPLGL(Dpa)AR-NH2 4 µM, 4–6 experiments, read-out: Ki ± sd MMP-9(T)
T4 construct: endogenous in cells; host or cells: THP-1 cells stimulated with PMA
T4 sequence (P14780 107-707 limits assumed): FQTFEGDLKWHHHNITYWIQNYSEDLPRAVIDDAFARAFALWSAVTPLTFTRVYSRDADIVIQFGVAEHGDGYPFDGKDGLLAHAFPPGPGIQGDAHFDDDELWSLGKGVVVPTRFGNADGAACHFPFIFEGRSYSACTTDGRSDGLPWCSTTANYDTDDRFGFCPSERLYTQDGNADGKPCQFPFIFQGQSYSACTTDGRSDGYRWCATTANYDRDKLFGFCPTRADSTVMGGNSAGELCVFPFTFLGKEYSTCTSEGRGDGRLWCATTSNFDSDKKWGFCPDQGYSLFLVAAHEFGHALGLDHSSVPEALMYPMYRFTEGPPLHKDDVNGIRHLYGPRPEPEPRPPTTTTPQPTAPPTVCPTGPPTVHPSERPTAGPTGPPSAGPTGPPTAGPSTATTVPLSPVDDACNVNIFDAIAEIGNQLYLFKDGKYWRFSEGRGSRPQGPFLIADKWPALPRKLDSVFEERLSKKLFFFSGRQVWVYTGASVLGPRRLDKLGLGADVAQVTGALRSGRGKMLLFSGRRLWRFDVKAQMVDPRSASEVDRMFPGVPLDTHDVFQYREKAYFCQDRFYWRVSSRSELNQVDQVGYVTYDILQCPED
Method: as §1, §2
The purified proMMP-9 was activated by trypsin, by mixing approximately 300 µg of proMMP-9 with trypsin (31 μg/ml) for 10 min at 37 °C in 0.1 M Hepes pH 7.5, 0.005% Brij35% and 10 mM CaCl2. The activation and processing of MMP-9 were terminated by adding a 50 times excess of SBTI (2.7 mg/ml) in relation to trypsin and after 10 min incubation at room temperature, the mixture was transferred and kept on ice during the kinetic and inhibition kinetic measurements. After activation, the activity was determined with 10 µM of McaPLGL(Dpa)AR-NH2 in 0.1 M Hepes pH 7.5, 0.005% Brij35% and 10 mM CaCl2 in a total assay volume of 100 µL, at 37 °C. Initial rates were measured at an excitation wavelength of 320 nm and an emission wavelength of 405 nm with a slit width of 10 nm using a Perkin Elmer LS 50 Luminescence spectrometer and the FL WinLab Software Package (Perkin Elmer). The amount of active MMP-9 was determined by active site titration using galardin as described previously.
The various inhibitors were dissolved in 100% DMSO giving an inhibitor concentration of 10 mM. All the inhibitory and control experiments contained a total and fixed concentration of 1.0% DMSO. […] The fixed enzyme concentration were as follows; 0.28 nM MMP-9(T), 0.05 nM MMP-9(A), 1.0 nM MMP-14, 1.4 nM ALN, 0.5 nM PLN and 0.21 nM TLN. Enzymes with and without inhibitors were pre-incubated for 15 min at 37 °C, the initial rate assays were started by adding the substrate and the reaction was followed for 30 min. Assays were performed using a Spectra Max Gemini EM micro-plate reader (Molecular Devices) or a Clario Star micro plate reader (CLARIOstar® BMG LABTECH). Assays were performed at 37 °C, using an excitation wavelength of 320 nm and an emission wavelength of 405 nm with a slit width of 10 nm. […]

thermolysin (TLN) = biological target: T5, thermolysin (TLN) (Bacillus thermoproteolyticus, UniProt P00800); test: TLN inhibition, continuous initial rate assay with McaRPPGFSAFK(Dnp)-OH after 15 min preincubation; type: biochemical; details: for inhibition at 100 µM: 100 μM compound, 15 min preincubation at 37 °C, 4 μM substrate, read-out: inhibition (reduction of activity) of TLN; for Ki: substrate McaRPPGFSAFK(Dnp)-OH 4 µM, 4–6 experiments, read-out: Ki ± sd TLN
T5 construct: purchased Calbiochem (San Diego, CA, USA)
T5 sequence (P00800 233-548): as the sequence (P00800 233-548) above
Method: as §1, §2, §3

aureolysin (ALN) = biological target: T6, aureolysin (ALN) (Staphylococcus aureus, UniProt P81177); test: ALN inhibition, continuous initial rate assay with McaRPPGFSAFK(Dnp)-OH after 15 min preincubation; type: biochemical; details: for inhibition at 100 µM: read-out: inhibition (reduction of activity) of ALN, 100 μM compound, 15 min preincubation at 37 °C, 4 μM substrate
T6 construct: purchased BioCentrum Ltd (Kraków, Poland)
T6 sequence (P81177 209-509): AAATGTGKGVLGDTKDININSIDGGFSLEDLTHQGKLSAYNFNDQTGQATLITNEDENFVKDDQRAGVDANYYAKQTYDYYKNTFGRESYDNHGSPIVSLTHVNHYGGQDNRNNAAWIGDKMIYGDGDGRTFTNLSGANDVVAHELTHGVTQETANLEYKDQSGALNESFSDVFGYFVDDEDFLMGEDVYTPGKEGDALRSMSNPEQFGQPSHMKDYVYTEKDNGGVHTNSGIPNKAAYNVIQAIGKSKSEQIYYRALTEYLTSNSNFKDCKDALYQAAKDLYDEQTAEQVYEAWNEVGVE
Method: as §1, §2, §3

[4] = test system: COc1ccc2c(CC(=O)N[C@@H](CCCNC(=N)N)C(=O)N3CCC[C@H]3C(=O)N3CCC[C@H]3C(=O)NCC(=O)N[C@@H](Cc3ccccc3)C(=O)N[C@@H](CO)C(=O)N[C@@H](C)C(=O)N[C@@H](Cc3ccccc3)C(=O)N[C@@H](CCCCNc3ccc([N+](=O)[O-])cc3[N+](=O)[O-])C(=O)O)cc(=O)oc2c1; test: purified protein, by the assay type; details: other: 1% DMSO; regarded as uncertain, highest substrate concentration 10 µM; pH 7.5
Method: For TLN, the Km value was also determined with a DMSO concentration of 2%.
Km values were determined for McaPLGL(Dpa)AR-NH2 with APMA-activated recombinant MMP-9 (rMMP-9(A)), trypsin-activated MMP-9 from THP-1 cells (MMP-9(T)) and MMP-14, and for Mca[sequence](Dnp)-OH with ALN, PLN and TLN. Substrate concentrations used were 1–10 µM in a total volume of 100 µL of 0.1 M Hepes pH 7.5 containing 10 mM CaCl2, 0.005% Brij-35 and 1.0% DMSO. […] Initial rate experiments were performed as described above for the determination of enzyme activity of MMP-9 during activation and the same excitation and emission wavelengths were used for both substrates.

[5] = 100 μM compound, 15 min preincubation at 37 °C, 4 μM substrate
[6] = catechol compounds, Ki from IC50, substrate competitive

Compound | Ki (pseudolysin (PLN)) | inhibition at 100 µM [2] | inhibition at 100 µM [3, 5] | Ki [3, 6] | inhibition at 100 µM (aureolysin (ALN)) | also measured
O=S(=O)(NCc1cccc(O)c1O)c1ccc(-c2ccccc2)cc1 [BF466] | – | – | – | – | – | vi/v0 rMMP-9(A) ([1]; preincubation 0 min at 37 °C): 0.74 ± 0.04; vi/v0 rMMP-9(A) ([1]; preincubation 15 min at 37 °C): 0.68 ± 0.02; vi/v0 rMMP-9(A) ([1]; preincubation 30 min at 37 °C): 0.73 ± 0.05
O=S(=O)(Nc1ccc(O)c(O)c1)c1ccc(-c2ccccc2)cc1 [BF471] | 9 ± 3 µM | > 50% | > 50% | 13 ± 2 µM | > 50% | inhibition at 100 µM (pseudolysin (PLN)): > 50%; Ki (TLN): 57 ± 6 µM; inhibition at 100 µM (thermolysin (TLN)): > 50%; Ki (thermolysin (TLN); [6]): 13 ± 2 µM; Ki (aureolysin (ALN)): 49 ± 5 µM
O=S(=O)(NCc1cccc(O)c1O)c1ccc(Br)cc1 [BF482] | – | – | > 50% | – | – | inhibition (reduction of activity) of PLN (pseudolysin (PLN); [5]): did not affect
O=S(=O)(NCc1ccc(O)c(O)c1)c1ccc(Br)cc1 [BF486] | – | – | – | – | – | inhibition (reduction of activity) of MMP-9(T) [3, 5]: did not affect
O=S(=O)(Nc1ccc(O)c(O)c1)c1ccc(Br)cc1 [BF489] | 16 ± 3 µM | > 50% | > 50% | 12.6 ± 0.6 µM | > 50% | inhibition at 100 µM (pseudolysin (PLN)): > 50%; Ki (TLN): 73 ± 11 µM; Ki [2, 6]: 8.3 ± 0.6 µM; inhibition at 100 µM (thermolysin (TLN)): > 50%; Ki (thermolysin (TLN); [6]): 14 ± 5 µM
COc1ccc(S(=O)(=O)NC(P(=O)(O)O)P(=O)(O)O)cc1 [LS4] | 58 ± 4 µM | – | – | – | – | –
O=S(=O)(Nc1cccc(O)c1O)c1ccc(-c2ccccc2)cc1 [ML32] | 38 ± 8 µM | > 50% | > 50% | 51 ± 17 µM | > 50% | inhibition at 100 µM (pseudolysin (PLN)): > 50%; Ki [2, 6]: 19 ± 0.8 µM
COc1ccc(S(=O)(=O)Nc2cccc(O)c2O)cc1 [ML33] | – | – | – | – | > 50% | –
O=P(O)(O)C(Nc1ccc(Cl)cc1)P(=O)(O)O [ML45] | 37 ± 6 µM | – | – | – | – | Ki ([2]; bisphosphonates): 17 ± 1 µM
O=C(NCc1ccc(-c2ccccc2)cc1)c1cccc(O)c1O [MT336] | – | > 50% | > 50% | 13 ± 1 µM | – | Ki [2, 6]: 12 ± 1 µM
O=P(O)(O)C(Nc1ccc(-c2ccccc2)cc1)P(=O)(O)O [MT363] | 12 ± 4 µM | – | – | – | – | Ki ([2]; bisphosphonates): 7.2 ± 0.6 µM; Ki ([3]; bisphosphonates): 6.6 ± 0.4 µM; Ki (thermolysin (TLN); bisphosphonates): 7 ± 1 µM
O=[N+]([O-])c1ccc(S(=O)(=O)NC(P(=O)(O)O)P(=O)(O)O)cc1 [RC2] | 22 ± 3 µM | – | – | – | – | Ki (thermolysin (TLN); bisphosphonates): 16.2 ± 0.4 µM
ALN (Staphylococcus aureus) | – | – | – | – | – | Km [4]: 76 ± 7 µM
